Where a name gives a salt, the structure may show the parent alone.
Biological target: Protein Kinase C beta 2 (PKCβII) (Homo sapiens (Human), UniProt P05771)
Assay: PKCβII coupled spectrophotometric kinase assay (PK/LDH, NADH absorbance at 340 nm)
Assay type: biochemical
Conditions: apparent Ki, ATP competitive inhibition model (Morrison equation); 0.1 mM ATP, 5 nM PKC, 30° C.; read-out: Ki app
Method: Protein Kinase C beta 2 (PKCβII) catalyzes the production of ADP from ATP that accompanies the phosphoryl transfer to the PKC Pseudosubstrate peptide (A→S, RFARKGSLRQKNV). This transfer is coupled to the oxidation of β-NADH through the activities of Pyruvate Kinase (PK) and Lactate Dehydrogenase (LDH). β-NADH conversion to NAD+ is monitored by the decrease in absorbance at 340 nm (e=6.22 cm^−1 mM^−1) using a Molecular Devices SPECTRA max PLUS spectrophotometer.
A typical assay was carried out on a 96-well, clear microtiter plate in a Molecular Devices spectrophotometer for 20 minutes at 30° C. in 0.1 mL of assay buffer containing 50 mM HEPES, pH 7.4, 5 nM PKC, 23 units of pyruvate kinase, 33 units of lactate dehydrogenase, 0.15 mM peptide, 0.1 mM ATP, 1 mM DTT, 4 mM PEP, 8 mM MgCl2, 0.3 mM NADH, 60 mM CaCl2, 10 mg/mL PS, 50 ng/mL PMA, 7.5% DMSO and from about 10,000 nM to 0.169 nM compound inhibitor. Stock solutions of 3-sn-phosphatidyl-L-serine (PS) and phorbol-12-myristate-13-acetate (PMA) were sonicated for 30 seconds just prior to addition to assay buffer and assays were initiated by the addition of 100 μM ATP.
Steady-state kinetic parameters for the bi-bi kinase reaction were determined at saturating phospho-acceptor peptide substrate concentration (0.15 mM) by fitting initial velocity data to the Michaelis-Menten equation, v=Vmax[S]/(KM+[S]) where v is the measured initial velocity, Vmax is the maximal enzyme velocity, [S] is the ATP substrate concentration, and KM is the Michealis constant for ATP. Enzyme turnover values (kcat) were calculated according to […], where [E] is the total enzyme concentration. Enzyme inhibition constants (apparent Ki values) were determined by fitting initial velocities at variable inhibitor concentrations to a model for ATP competitive inhibition based on the Morrison equation). Morrison, J. F., Biochim. Biophys Acta 185: 269-286 (1969).

Chain of Protein Kinase C beta 2 (PKCβII) (P05771 other isoform, or with tags, fused parts or gaps): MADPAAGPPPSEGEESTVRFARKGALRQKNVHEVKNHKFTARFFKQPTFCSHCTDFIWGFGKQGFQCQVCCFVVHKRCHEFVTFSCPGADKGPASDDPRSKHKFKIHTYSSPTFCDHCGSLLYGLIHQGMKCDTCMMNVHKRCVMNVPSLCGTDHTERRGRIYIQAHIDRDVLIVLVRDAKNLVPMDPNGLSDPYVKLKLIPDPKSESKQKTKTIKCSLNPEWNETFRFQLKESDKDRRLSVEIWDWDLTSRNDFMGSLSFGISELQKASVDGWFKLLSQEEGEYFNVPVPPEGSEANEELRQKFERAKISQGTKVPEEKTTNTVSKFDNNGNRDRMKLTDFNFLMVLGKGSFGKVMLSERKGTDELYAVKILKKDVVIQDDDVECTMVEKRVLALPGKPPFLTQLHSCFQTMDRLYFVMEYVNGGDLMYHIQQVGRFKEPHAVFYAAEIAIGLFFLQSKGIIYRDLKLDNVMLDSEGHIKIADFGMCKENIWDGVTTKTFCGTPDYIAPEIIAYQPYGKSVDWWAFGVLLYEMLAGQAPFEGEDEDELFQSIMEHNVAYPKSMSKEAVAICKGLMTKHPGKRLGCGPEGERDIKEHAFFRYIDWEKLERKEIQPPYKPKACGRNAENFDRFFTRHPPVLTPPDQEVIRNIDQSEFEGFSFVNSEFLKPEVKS

Ki [nM] | SMILES
11.1 | Cc1cc(C)nc(Nc2n[nH]c3c2CN(C(=O)N2C[C@@H](C)N(CC4CCOCC4)C[C@@H]2C)C3(C)C)n1 [Example J16, N-(4,6-dimethylpyrimidin-2-yl)-5-{[(2S,5R)-2,5-dimethyl-4-(tetrahydro-2H-pyran-4-ylmethyl)piperazin-1-yl]carbonyl}-6,6-dimethyl-1,4,5,6-tetrahydropyrrolo[3,4-c]pyrazol-3-amine]
58.6 | COCCCOc1ncc(F)c(Nc2n[nH]c3c2CN(C(=O)C2(F)CCN(C)CC2)C3(C)C)n1 [Example L3, N-[5-fluoro-2-(3-methoxypropoxy)pyrimidin-4-yl]-5-[(4-fluoro-1-methylpiperidin-4-yl)carbonyl]-6,6-dimethyl-1,4,5,6-tetrahydropyrrolo[3,4-c]pyrazol-3-amine]
2.03 | CCNc1ncc(F)c(Nc2n[nH]c3c2CN(C(=O)N2C[C@@H](C)N(C)C[C@@H]2C)C3(C)C)n1 [Example B3, N^4-(6,6-dimethyl-5-{[(2S,5R)-2,4,5-trimethylpiperazin-1-yl]carbonyl}-1,4,5,6-tetrahydropyrrolo[3,4-c]pyrazol-3-yl)-N^2-ethyl-5-fluoropyrimidine-2,4-diamine]
5.09 | CCNc1ncc(F)c(Nc2n[nH]c3c2CN(C(=O)N2C[C@@H](C)N(CCCOC)C[C@@H]2C)C3(C)C)n1 [Example B1, N^2-ethyl-5-fluoro-N^4-(5-{[(2S,5R)-4-(3-methoxypropyl)-2,5-dimethylpiperazin-1-yl]carbonyl}-6,6-dimethyl-1,4,5,6-tetrahydropyrrolo[3,4-c]pyrazol-3-yl)pyrimidine-2,4-diamine acetate salt]
< 10 | Cc1ccnc(Nc2n[nH]c3c2CN(C(=O)N2C[C@@H](C)N(CC4CCOCC4)C[C@@H]2C)C3(C)C)n1 [Example J15, 5-{[(2S,5R)-2,5-dimethyl-4-(tetrahydro-2H-pyran-4-ylmethyl)piperazin-1-yl]carbonyl}-6,6-dimethyl-N-(4-methylpyrimidin-2-yl)-1,4,5,6-tetrahydropyrrolo[3,4-c]pyrazol-3-amine]
17.9 | C[C@H]1CN(C)C(C)(C)CN1C(=O)N1Cc2c(Nc3nc(NCC4CC4)ncc3F)n[nH]c2C1(C)C [Example A3, N^2-(cyclopropylmethyl)-N^4-(6,6-dimethyl-5-{[(2S)-2,4,5,5-tetramethylpiperazin-1-yl]carbonyl}-1,4,5,6-tetrahydropyrrolo[3,4-c]pyrazol-3-yl)-5-fluoropyrimidine-2,4-diamine]
42.7 | COCCOc1ncc(F)c(Nc2n[nH]c3c2CN(C(=O)N2CC(C)(C)N(C)C[C@@H]2C)C3(C)C)n1 [Example K11, N-[5-fluoro-2-(2-methoxyethoxy)pyrimidin-4-yl]-6,6-dimethyl-5-{[(2S)-2,4,5,5-tetramethylpiperazin-1-yl]carbonyl}-1,4,5,6-tetrahydropyrrolo[3,4-c]pyrazol-3-amine]
14.9 | Cc1ncc(F)c(Nc2n[nH]c3c2CN(C(=O)N2C[C@@H](C)N(CC4CCOCC4)C[C@@H]2C)C3(C)C)n1 [Example H6, 5-{[(2S,5R)-2,5-dimethyl-4-(tetrahydro-2H-pyran-4-ylmethyl)piperazin-1-yl]carbonyl}-N-(5-fluoro-2-methylpyrimidin-4-yl)-6,6-dimethyl-1,4,5,6-tetrahydropyrrolo[3,4-c]pyrazol-3-amine]
< 10 | CCOc1ncc(F)c(Nc2n[nH]c3c2CN(C(=O)N2C[C@@H](C)N(CC4CCOCC4)C[C@@H]2C)C3(C)C)n1 [Example K19, 5-{[(2S,5R)-2,5-dimethyl-4-(tetrahydro-2H-pyran-4-ylmethyl)piperazin-1-yl]carbonyl}-N-(2-ethoxy-5-fluoropyrimidin-4-yl)-6,6-dimethyl-1,4,5,6-tetrahydropyrrolo[3,4-c]pyrazol-3-amine]
< 10 | CCOc1ncc(F)c(Nc2n[nH]c3c2CN(C(=O)N2CC(CCO)N(C)C[C@@H]2C)C3(C)C)n1 (stereo partly drawn) [Example K23, 2-((5S)-4-{[3-[(2-ethoxy-5-fluoropyrimidin-4-yl)amino]-6,6-dimethyl-4,6-dihydropyrrolo[3,4-c]pyrazol-5(1H)-yl]carbonyl}-1,5-dimethylpiperazin-2-yl)ethanol]
16.1 | CCOc1ccnc(Nc2n[nH]c3c2CN(C(=O)N2C[C@@H](C)N(CCCOC)C[C@@H]2C)C3(C)C)n1 [Example M2, N-(4-ethoxypyrimidin-2-yl)-5-{[(2S,5R)-4-(3-methoxypropyl)-2,5-dimethylpiperazin-1-yl]carbonyl}-6,6-dimethyl-1,4,5,6-tetrahydropyrrolo[3,4-c]pyrazol-3-amine]
16.8 | CCOc1ncc(F)c(Nc2n[nH]c3c2CN(C(=O)C2(F)CCN(C)CC2)C3(C)C)n1 [Example L1, N-(2-ethoxy-5-fluoropyrimidin-4-yl)-5-[(4-fluoro-1-methylpiperidin-4-yl)carbonyl]-6,6-dimethyl-1,4,5,6-tetrahydropyrrolo[3,4-c]pyrazol-3-amine]
181 | CCOc1ncc(F)c(Nc2n[nH]c3c2CN(C(=O)C2CCN(C4CCOCC4)CC2)C3(C)C)n1 [Example L6, N-(2-ethoxy-5-fluoropyrimidin-4-yl)-6,6-dimethyl-5-{[1-(tetrahydro-2H-pyran-4-yl)piperidin-4-yl]carbonyl}-1,4,5,6-tetrahydropyrrolo[3,4-c]pyrazol-3-amine]
22.9 | CCN1C[C@H](C)N(C(=O)N2Cc3c(Nc4nc(OC)ncc4F)n[nH]c3C2(C)C)C[C@H]1C [Example AA1, 5-{[(2S,5R)-4-ethyl-2,5-dimethylpiperazin-1-yl]carbonyl}-N-(5-fluoro-2-methoxypyrimidin-4-yl)-6,6-dimethyl-1,4,5,6-tetrahydropyrrolo[3,4-c]pyrazol-3-amine]
< 10 | COc1ccnc(Nc2n[nH]c3c2CN(C(=O)N2C[C@@H](C)N(C4CCOCC4)C[C@@H]2C)C3(C)C)n1 [Example J11, 5-{[(2S,5R)-2,5-dimethyl-4-(tetrahydro-2H-pyran-4-yl)piperazin-1-yl]carbonyl}-N-(4-methoxypyrimidin-2-yl)-6,6-dimethyl-1,4,5,6-tetrahydropyrrolo[3,4-c]pyrazol-3-amine]
25.4 | CCc1ncc(F)c(Nc2n[nH]c3c2CN(C(=O)C2(F)CCN(C)CC2)C3(C)C)n1 [Example G1, N-(2-ethyl-5-fluoropyrimidin-4-yl)-5-[(4-fluoro-1-methylpiperidin-4-yl)carbonyl]-6,6-dimethyl-1,4,5,6-tetrahydropyrrolo[3,4-c]pyrazol-3-amine]
3.81 | CC(C)Nc1ncc(F)c(Nc2n[nH]c3c2CN(C(=O)N2CC(C)(C)N(C)C[C@@H]2C)C3(C)C)n1 [Example A7, N^4-(6,6-dimethyl-5-{[(2S)-2,4,5,5-tetramethylpiperazin-1-yl]carbonyl}-1,4,5,6-tetrahydropyrrolo[3,4-c]pyrazol-3-yl)-5-fluoro-N^2-isopropylpyrimidine-2,4-diamine]
36.5 | COc1ncc(F)c(Nc2n[nH]c3c2CN(C(=O)N2CC(CCO)N(C)C[C@@H]2C)C3(C)C)n1 (single isomer, unassigned) [Example K25]
10.5 | CCc1ncc(F)c(Nc2n[nH]c3c2CN(C(=O)N2C[C@@H](C)N(C)C[C@@H]2C)C3(C)C)n1 [Example E1, N-(2-ethyl-5-fluoropyrimidin-4-yl)-6,6-dimethyl-5-{[(2S,5R)-2,4,5-trimethylpiperazin-1-yl]carbonyl}-1,4,5,6-tetrahydropyrrolo[3,4-c]pyrazol-3-amine acetate salt]
39.9 | Cc1ncc(F)c(Nc2n[nH]c3c2CN(C(=O)C2(F)CCN(C)CC2)C3(C)C)n1 [Example F1, 5-[(4-fluoro-1-methylpiperidin-4-yl)carbonyl]-N-(5-fluoro-2-methylpyrimidin-4-yl)-6,6-dimethyl-1,4,5,6-tetrahydropyrrolo[3,4-c]pyrazol-3-amine]
1.12 | CCOc1ncc(F)c(Nc2n[nH]c3c2CN(C(=O)N2C[C@@H](C)N(C)C[C@@H]2C)C3(C)C)n1 [Example K1, N-(2-ethoxy-5-fluoropyrimidin-4-yl)-6,6-dimethyl-5-{[(2S,5R)-2,4,5-trimethylpiperazin-1-yl]carbonyl}-1,4,5,6-tetrahydropyrrolo[3,4-c]pyrazol-3-amine]
1.73 | CCCc1ncc(F)c(Nc2n[nH]c3c2CN(C(=O)N2CC(C)(C)N(C)C[C@@H]2C)C3(C)C)n1 [Example I1, N-(5-fluoro-2-propylpyrimidin-4-yl)-6,6-dimethyl-5-{[(2S)-2,4,5,5-tetramethylpiperazin-1-yl]carbonyl}-1,4,5,6-tetrahydropyrrolo[3,4-c]pyrazol-3-amine]
< 10 | CCc1ncc(F)c(Nc2n[nH]c3c2CN(C(=O)N2C[C@@H](C)N(CC4CCOCC4)C[C@@H]2C)C3(C)C)n1 [Example J10, 5-{[(2S,5R)-2,5-dimethyl-4-(tetrahydro-2H-pyran-4-ylmethyl)piperazin-1-yl]carbonyl}-N-(2-ethyl-5-fluoropyrimidin-4-yl)-6,6-dimethyl-1,4,5,6-tetrahydropyrrolo[3,4-c]pyrazol-3-amine]
